Test results: patent publication US20040186098A1 (Amgen Inc., priority 1997, published 2004)

System: hair cells in rat organ of Corti explant
Assay: Organ of Corti (cochlea) explant culture, hair cell survival after neomycin
Assay type: cell-based
Protocol: The sensorineurotrophic compound stock solution was stored at room temperature and prepared fresh for each culture. The stock solution was diluted in 10 μl of 100% EtOH for every milligram of sensorineurotrophic compound in the stock solution (approximately 250 mM). This solution of 250 mM sensorineurotrophic compound in 100% EtOH was diluted in normal culture medium to working concentrations of 50000 nM, 5000 nM, 500 nM, 50 nM, 5000 pM, 500 pM, 50 pM, 10 pM, 5 pM, 1 pM, 0.5 pM, 0.1 pM, and 0.01 pM. […]
Organ of Corti explants were obtained from P3-P4 Wistar rats. […] The organ of Corti then was transferred to a 35-mm diameter Petri dish containing cold PBS supplemented with glucose and was ready to be cultured. […]
To identify and count hair cells in the organ of Corti, a direct immunostaining method was used to label the actin present naturally in the stereocilia bundles of the hair cells. […] The explants were observed under a Nikon Diaphot-300 inverted fluorescence microscope, using FITC filters and fluorescence optics.
In each cochlea, the number of hair cells was counted in 2-3 sections, 175 μm in length each. Only the sections in the middle turn of the cochlea were analyzed. […]

With `CCC(C)(C)C(=O)C(=O)N1CCC[C@H]1C(=O)OCCCc1cccnc1` [Compound I] the surviving hair cells (Compound I 0.05 pM together with 0.6 mM neomycin) was 31.8%±16.4 and the “loss of hair cells” value (Compound I 0.05 pM together with neomycin, neomycin alone 95%) was “around 70%”.
